Assay results reported in patent US11541051B2, “Compositions and methods for treating CDK4/6-mediated cancer” (Icahn School of Medicine at Mount Sinai, priority 2016, dated 2023).
“Also recorded” adds a separate entry of the source.

Columns and labels:
Assay type in all cases: cell-based
CDK4/6 [1] = assay: Western blot of CDK4 and CDK6 in MCF7 breast cancer cells treated with degraders (Example 12, FIG. 10 A); details: 1 or 5 μM, 24 h
Protocol: (§1) Breast cancer cell lines (MCF7, T47D, and ZR-75-1) and melanoma cell lines (A375, SK-MEL-2, SK-MEL-30, and WM1382) were cultured in the presence of DMEM or RPMI supplemented with 10% FBS in the presence of penicillin and streptomycin.
(§2) Protein concentrations were determined by BCA from cell lysates and equal amounts of protein are loaded to a Bis-Tris 4-12% gel. Gels were run at 80 V for 4 h using 1× running buffer (25 mM Tris, pH 8.3, […] glycine, 0.1% SDS). Proteins were transferred to a nitrocellulose membrane for 2 h at 100 V using transfer buffer (25 mM Tris, pH 8.3, […] glycine, 20% methanol). Ponceau S staining (0.1% Ponceau S, 1% acetic acid) was used to confirm transfer of proteins to the membrane followed by blocking of the membrane for 30 min at room temperature using blocking buffer (5% dry nonfat milk, 0.1% Tween, 0.02% sodium azide in TBS). The blocked membrane is incubated with primary antibodies (1:1000 dilution) in blocking buffer at 4° C. overnight. When primary phosphor-antibodies were used, then the membrane is incubated with 5% BSA instead of milk. The membrane was washed three times, 10 min each, with wash buffer (0.1% Tween in TBS) followed by incubation with secondary HRP conjugated antibody (1:5000 dilution) in 2.5% dry nonfat milk, 0.1% Tween in TBS for 1 h at room temperature. The membrane was washed three times, 10 min each, with wash buffer (0.1% Tween in TBS). Membranes are incubated with ECL for 1 min and proteins are detected after exposure to a blue autoradiographic film.
(§3) MCF7 breast cancer cells were treated with 1 or 5 μM XY019-095, XY019-098, XY019-0100, XY019-105A, XY019-105B, XY019-106, or XY019-108 for 24 h, then lysed and immunoblotted with antibodies to CDK4, CDK6, and actin (FIG. 10, panel A). […] T47D breast cancer cells were treated with 0.1, 0.3, 1, 3, 10, or 30 μM XY019-106 for 24 h, then lysed and immunoblotted with antibodies to phospho-Rb (pRB), CDK4, and actin (FIG. 10, panel B).

CDK4/6 [2] = target: T1, CDK4/6 (Homo sapiens, UniProt P11802); assay: Western blot of CDK4/6 and phospho-Rb in T47D breast cancer cells treated with degraders (Example 12, FIGS. 10 B, 17, 19); details: 24 h
T1 construct: endogenous in cells; host or cells: MCF7, T47D, ZR-75-1 (breast cancer); A375, SK-MEL-2, SK-MEL-30, WM1382 (melanoma)
Protocol: as §1, §2, §3
(§4) T47D breast cancer cells (FIG. 17) were treated with 0.3 or 1 μM XY028-140, YX039-48, YX039-123, YX039-56, YX039-124, YX039-65, YX039-147 or YX039-74 for 24 h, then lysed and immunoblotted with antibodies to phospho-Rb (pRb), total Rb, PLK1, cyclin A, CDK4, CDK6, and actin.
(§5) T47D breast cancer cells (FIG. 19) were treated with 0.3 or 1 μM XY028-133, YX044-18, YX044-22, XY028-140, YX044-19 or YX044-38 for 24 h, then lysed and immunoblotted with antibodies to phospho-Rb (pRb), total Rb, PLK1, cyclin A, CDK4, CDK6, and actin.

CDK4/6 [3] = assay: as above; details: concentrations as high as 30 μM, 24 h
Protocol: as §1, §2, §3, §4, §5

CDK4/6 [4] = assay: Western blot of CDK4, CDK6 and phospho-Rb in SK-MEL-2 or A375 melanoma cells treated with degraders (Example 12, FIG. 11); details: SK-MEL-2 or A375 cells; 1 or 3 μM; 24 h
Protocol: as §1
as §2, with “The membrane was washed three times, 10 min each, with wash buffer (0.1% Tween in TBS) followed by incubation with secondary HRP conjugated antibody (1:5000 dilution) in 2.5% dry nonfat milk, 0.1% Tween in TBS for 1 h at room temperature. The membrane was washed three times, 10 min each, with wash buffer (0.1% Tween in TBS).” left out, “film. […]” for “film.”

CDK4/6 [5] = assay: Western blot of CDK4, CDK6 and phospho-Rb in A375 melanoma cells treated with degraders (Example 12, FIGS. 12, 13, 16, 18); details: 24 h
Protocol: as §1, §2
A375 melanoma cells (FIG. 13) were treated with 1 or 3 μM Ribociclib (RB), YX030-126, YX030-108, YX030-107, YX030-086, YX030-085 or XY028-133 for 24 h, then lysed and immunoblotted with antibodies to CDK4, CDK6, cyclin A, PLK1, phospho-Rb (pRb), and actin.
A375 melanoma cells (FIG. 16, panel A) were treated with 0.3 or 1 μM XY028-140, YX039-65, YX039-48, YX039-123, YX039-56, YX039-124 or YX039-147 for 24 h. A375 melanoma cells were treated with 1 or 3 μM XY028-140, YX039-56, YX039-65 or XY028-133 (FIG. 16, panel B). Cells were lysed and immunoblotted with antibodies to phospho-Rb (pRb), total Rb, PLK1, cyclin A, CDK4, CDK6, and actin.
A375 melanoma cells (FIG. 18) were treated with 1 or 3 μM XY028-133, YX044-18, YX044-22, XY028-140, YX044-19 or YX044-38 for 24 h, then lysed and immunoblotted with antibodies to phospho-Rb (pRb), total Rb, PLK1, cyclin A, CDK4, CDK6, and actin.

CDK4/6 [6] = assay: Characterization of CDK4/6 degraders/disruptors in various breast cancer and melanoma cells (summary, Examples 12 and 13)
Protocol: Specific exemplary abemaciclib-, ribociclib-, and palbociclib-based CDK4/6 degraders/disruptors were characterized in various different breast cancer and melanoma cells (Examples 12 and 13, FIGS. 10-23). […] This efficacy in suppressing CDK4/6 expression and CDK4/6 activity correlated with efficacy in inhibiting cancer cell proliferation.
as §2

A375 melanoma cells [7] = assay: Bright field imaging of A375 melanoma cell proliferation (Example 13, FIG. 20); details: 1 or 2 μM, 7 days
A375 melanoma cells [8] = assay: Crystal violet staining (clonogenic assay) of A375 melanoma cells (Example 13, FIG. 21); details: 0.03-3 μM, 11 days
Protocol: Cells were cultured for 7-11 days in the presence of different compounds. Media with compound was replenished every two days. At the end of the experiment, media was aspirated and viable cells were stained with 0.5% crystal violet dye.

[9] = test system: V5-tagged CDK4 or V5-tagged CDK6; assay: Western blot of V5-tagged CDK4 or CDK6 ectopically expressed in 293H cells (Example 8); details: 1, 3 or 10 μM, 24 h
Protocol: Protein concentrations were determined by BCA from cell lysates and equal amounts of protein are loaded to a Bis-Tris 4-12% gel. Gels were run at 80 V for 4 h using 1× running buffer (25 mM Tris, pH 8.3, 1.92 M glycine, 0.1% SDS). Proteins were transferred to a nitrocellulose membrane for 2 h at 100 V using transfer buffer (25 mM Tris, pH 8.3, 1.92 M glycine, 20% methanol). Ponceau S staining (0.1% Ponceau S, 1% acetic acid) was used to confirm transfer of proteins to the membrane followed by blocking of the membrane for 30 min at room temperature using blocking buffer (5% dry nonfat milk, 0.1% Tween, 0.02% sodium azide in TBS). The blocked membrane is incubated with primary antibodies (1:1000 dilution) in blocking buffer at 4° C. overnight. When primary phosphor-antibodies were used, then the membrane is incubated with 5% BSA instead of milk. The membrane was washed three times, 10 min each, with wash buffer (0.1% Tween in TBS) followed by incubation with secondary HRP conjugated antibody (1:5000 dilution) in 2.5% dry nonfat milk, 0.1% Tween in TBS for 1 h at room temperature. The membrane was washed three times, 10 min each, with wash buffer (0.1% Tween in TBS). Membranes are incubated with ECL for 1 min and proteins are detected after exposure to a blue autoradiographic film.

T1 sequence (P11802 2-303): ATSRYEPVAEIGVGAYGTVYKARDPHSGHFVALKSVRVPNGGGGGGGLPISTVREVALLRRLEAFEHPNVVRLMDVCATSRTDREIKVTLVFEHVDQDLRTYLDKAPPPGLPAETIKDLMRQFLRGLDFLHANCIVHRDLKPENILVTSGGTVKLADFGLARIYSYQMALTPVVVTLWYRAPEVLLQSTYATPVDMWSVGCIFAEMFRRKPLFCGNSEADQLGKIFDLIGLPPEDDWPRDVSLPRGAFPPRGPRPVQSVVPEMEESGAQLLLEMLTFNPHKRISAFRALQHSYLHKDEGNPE

| SMILES | suppression of CDK4/6 expression (CDK4/6 [1]) | efficacy in inhibiting both CDK4/6 expression and CDK4/6 activity (decreased Rb phosphorylation) (CDK4/6 [4]) | efficacy in inhibiting both CDK4/6 expression and CDK4/6 activity (decreased Rb phosphorylation) (CDK4/6 [5]; 1 or 3 μM) | suppression of both CDK4/6 expression and CDK4/6 activity (summary) (CDK4/6 [6]) | other results |
| --- | --- | --- | --- | --- | --- |
| CC(=O)c1c(C)c2cnc(Nc3ccc(N4CCN(C(=O)CCCCCCC(=O)N[C@H](C(=O)N5C[C@H](O)C[C@H]5C(=O)NCc5ccc(-c6scnc6C)cc5)C(C)(C)C)CC4)cn3)nc2n(C2CCCC2)c1=O [XY019-106, (2S,4R)-1-((S)-2-(8-(4-(6-((6-acetyl-8-cyclopentyl-5-methyl-7-oxo-7,8-dihydropyrido[2,3-d]pyrimidin-2-yl)amino)pyridin-3-yl)piperazin-1-yl)-8-oxooctanamido)-3,3-dimethylbutanoyl)-4-hydroxy-N-(4-(4-methylthiazol-5-yl)benzyl)pyrrolidine-2-carboxamide] | especially effective in suppressing CDK4/6 expression even at 1 μM | efficacy of CDK4/6 degraders/disruptors, particularly XY019-106 and XY028-003 | efficacy of CDK4/6 degraders, particularly XY028-133, XY028-140, XY019-106 and XY028-003 | especially effective in suppressing both CDK4/6 expression and CDK4/6 activity | suppression of CDK4 expression and inhibition of CDK4 activity (Rb phosphorylation) (CDK4/6 [2]; 0.1-30 μM): both suppresses CDK4 expression and inhibit CDK4 activity; concentrations with significant effects on CDK4 expression and Rb phosphorylation (CDK4/6 [2]): ≥ 0.3 µM; inhibition of Rb phosphorylation at high concentrations (CDK4/6 [3]): inhibited Rb phosphorylation even when administered at high concentrations |
| CC(=O)c1c(C)c2cnc(Nc3ccc(N4CCN(C(=O)CCOCCOCCOCCNc5cccc6c5C(=O)N(C5CCC(=O)NC5=O)C6=O)CC4)cn3)nc2n(C2CCCC2)c1=O (stereo not drawn) [XY019-108, 4-((2-(2-(2-(3-(4-(6-((6-acetyl-8-cyclopentyl-5-methyl-7-oxo-7,8-dihydropyrido[2,3-d]pyrimidin-2-yl)amino)pyridin-3-yl)piperazin-1-yl)-3-oxopropoxy)ethoxy)ethoxy)ethyl)amino)-2-(2,6-dioxopiperidin-3-yl)isoindoline-1,3-dione] | especially effective in suppressing CDK4/6 expression even at 1 μM | – | – | especially effective in suppressing both CDK4/6 expression and CDK4/6 activity | – |
| CC(=O)c1c(C)c2cnc(Nc3ccc(N4CCN(C(=O)CCOCCC(=O)N[C@H](C(=O)N5C[C@H](O)C[C@H]5C(=O)NCc5ccc(-c6scnc6C)cc5)C(C)(C)C)CC4)cn3)nc2n(C2CCCC2)c1=O [XY028-003, (2S,4R)-1-((S)-2-(3-(3-(4-(6-((6-acetyl-8-cyclopentyl-5-methyl-7-oxo-7,8-dihydropyrido[2,3-d]pyrimidin-2-yl)amino)pyridin-3-yl)piperazin-1-yl)-3-oxopropoxy)propanamido)-3,3-dimethylbutanoyl)-4-hydroxy-N-(4-(4-methylthiazol-5-yl)benzyl)pyrrolidine-2-carboxamide] | – | efficacy of CDK4/6 degraders/disruptors, particularly XY019-106 and XY028-003 | efficacy of CDK4/6 degraders, particularly XY028-133, XY028-140, XY019-106 and XY028-003 | especially effective in suppressing both CDK4/6 expression and CDK4/6 activity | – |
| CC(=O)c1c(C)c2cnc(Nc3ccc(N4CCN(C(=O)CCCCCC(=O)N[C@H](C(=O)N5C[C@H](O)C[C@H]5C(=O)NCc5ccc(-c6scnc6C)cc5)C(C)(C)C)CC4)cn3)nc2n(C2CCCC2)c1=O [XY028-133, (2S,4R)-1-((S)-2-(7-(4-(6-((6-acetyl-8-cyclopentyl-5-methyl-7-oxo-7,8-dihydropyrido[2,3-d]pyrimidin-2-yl)amino)pyridin-3-yl)piperazin-1-yl)-7-oxoheptanamido)-3,3-dimethylbutanoyl)-4-hydroxy-N-(4-(4-methylthiazol-5-yl)benzyl)pyrrolidine-2-carboxamide] | – | – | efficacy of CDK4/6 degraders, particularly XY028-133, XY028-140, XY019-106 and XY028-003; also recorded: efficacy of CDK4/6 degraders, particularly XY028-133 and YX044-18 | especially effective in suppressing both CDK4/6 expression and CDK4/6 activity | efficacy in inhibiting both CDK4/6 expression and CDK4/6 activity (decreased Rb phosphorylation) (CDK4/6 [5]; 0.3 or 1 μM (FIG. 16 A), 1 or 3 μM (FIG. 16 B)): efficacy of CDK4/6 degraders, particularly XY028-133; inhibition of cancer cell proliferation compared with palbociclib (bright field imaging) (A375 melanoma cells [7]): more effective in inhibiting cancer cell proliferation than palbociclib at the same concentration; inhibition of cancer cell proliferation compared with palbociclib (crystal violet staining) (A375 melanoma cells [8]): more effective in inhibiting cancer cell proliferation than palbociclib at 1 and 3 μM |
| CN(C)C(=O)c1cc2cnc(Nc3ccc(N4CCNCC4)cn3)nc2n1C1CCCC1 [ribociclib] | – | – | – | – | expression of V5-tagged CDK4 and CDK6 [9]: upregulated the expression of V5-tagged CDK4 and CDK6 |
